Source: patent US20250296961A1, “ANTIMICROBIAL PEPTIDES FOR REMINERALIZATION OF TEETH AND PREVENTION OF DENTAL CARIES” (The University of Hong Kong, priority 2021, published 2025)

Legend:
[1] = Remineralization assay of peptide-coated enamel (Example 1); set-up: species or system human; conditions: 8 μmol/mL coating, remineralization solution 24 h, FE-SEM
Experimental: 3×3×1.5 mm^3 (number: 197) tooth slices were prepared using a water-cooled diamond saw (IsoMet low-speed saw, Buehler, Lake Bluff, IL, USA). One working surface of complete enamel tissue from each tooth slice was generated using the MicroCT Skyscan 1172 (Bruker MicroCT, Kontich, Belgium). The enamel working side of the tooth slice was polished and other sides marked with acid-proof nail polish. All tooth slices were cleaned and stored in deionized water at 4° C.
The enamel working surface of tooth slices (N=30) was acid-etched in 37% phosphoric acid for 1 min and rinsed with deionized water for 1 min. The slices were immersed in 8 μmol/mL P-113, P-113-DPS, P-113-DA, P-113-SK, Sp-H5 (n=5 for each) solutions (in 10 mM HEPES) or HEPES (control) overnight. All tooth slices were incubated in 7 mL remineralization solution (2.58 mM CaCl2)·2H2O, 1.55 mM KH2PO4, 10 mg/L NaF, 180 mM NaCl, 50 mM Tris-HCl, pH 7.6) for 24 h. The enamel surface and cross-section morphology were analyzed by FE-SEM (Hitachi, S4800). Ca/P concentrations in the solutions before and after immersion were calculated by ICP-OES. The mean values for Ca/P gain were analyzed using ANOVA at the 1‰ significance level.

[2] = Adsorption capacity assay: peptides with HA particles (Micro BCA); format: binding
Experimental: The adsorption of P-113, P-113-DPS, P-113-DA, and P-113-SK to HA particles (Sigma Chemical Co., St Louis, USA) was measured using the Micro BCA method with Sp-H5 as the control group. Solutions of P-113, P-113-DPS, P-113-DA, P-113-SK and Sp-H5 in 10 mM HEPES buffer (pH 7) were diluted to 10 nmol/mL concentrations, and 200 μL was placed into each tube (P-113, N=10; P-113-DPS, N=10; P-113-DA, N=10; P-113-SK, N=10; and Sp-H5, N=10). Peptide solutions were mixed with (n=5) or without (n=5) HA particles (20 mg/tube) in each group. Tubes were placed onto a rotator overnight at 37° C. for complete reaction. Tubes containing the peptide solution and HA were centrifuged (13000 rpm, 1 min) and the supernatant collected. Bovine serum albumin (BSA) standard solutions (working range=5-250 μg/mL) and working reagent were prepared using the Pierce BCA Protein Assay Kit (Rockford, IL, USA). Working reagents (100 μL/well) were added to a 96-well plate, followed by standard and peptide solutions (100 μL/well). The Plate was incubated in the dark for 30 min and the absorbance (562 nm) measured using a plate reader. The concentration (C) of the BSA standard solution was linear with the absorbance (A) at 562 nm. The function of C=a*A+b was determined (a and b as constants). The final concentration (the peptide solution mixed with HA) and the initial concentration (the peptide solution without HA) were computed using the function and the generated absorbance data of the peptide solution mixed with and without HA.

S. mutans [3] = assay: Anti-planktonic bacterial ability, MBC (Example 2); format: cell-based, S. mutans (ATCC 35668)
Experimental: S. mutans (ATCC 35668, ATCC, Manassas, USA), S. gordonii (ATCC 35105, ATCC, Manassas, USA), and S. sanguinis (ATCC 10556, ATCC, Manassas, USA) strains were cultured in brain-heart infusion broth (BHI, Difco Laboratories, Detroit, USA) at 37° C. under anaerobic conditions (85% N2, 10% H2, and 5% CO2). Bacteria were harvested by centrifugation (5000 rpm, 10 min), washed once with sodium phosphate-buffered saline (PBS, 10 mM, pH=7.2), and resuspended in BHI at a concentration of 1×10^6 CFU mL^−1.
Each well was seeded with 10 μL S. mutans suspension, S. gordonii suspension, and S. sanguinis suspension, respectively. […] The bacterial growth was assessed by measuring the absorbance at 595 nm using a microplate reader after a 24-hour incubation. Subsequently, 10 μL of bacterial suspension from each well were plated on horse blood agar plates and incubated at 37° C. for 48 h. The antibacterial activities of AMPs were evaluated.

S. mutans [4] = assay: Anti-planktonic bacterial ability, MIC and MBC (Example 1); format: cell-based, Streptococcus mutans (ATCC 35668)
Experimental: Streptococcus mutans (ATCC 35668, ATCC, Manassas, USA) were cultured in Horse Blood Medium under anaerobic (85% N2, 10% H2, and 5% CO2) conditions at 37° C. Cells were harvested by centrifugation (5000 rpm, 10 min), washed once with 10 mM sodium phosphate-buffered saline (PBS, pH 7.2), and resuspended in brain-heart infusion broth (BHI, Difco Laboratories, Detroit, USA) at a concentration of 10^6 CFU/mL.
Two-fold serial dilutions (in 10 mM HEPES) of P-113, P-113-DPS, P-113-DA, P-113-SK, and Sp-H5 prepared in 25% BHI medium were pipetted into a 96-well cell culture plate at final concentrations from 0.125-128 μmol/mL [100 μL/well]. Each well was seeded with 10 μL bacterial suspension at a final concentration of 10^6 CFU/mL. Sp-H5 with bacterial cells and 25% BHI medium with and without bacterial cells in 10 mM HEPES buffer (pH 7) were used as the positive, negative, and blank control group, respectively. After a 24-h incubation, absorbance was measured at 595 nm using a microplate reader to assess cell growth. […] The minimal bactericidal concentration (MBC) was defined as the lowest concentration of peptide resulting in no colony formation on agar plates after incubation. 10 μL of cell suspension from each well were plated on horse blood agar plates and incubated at 37° C. for 48 h. All determinations were conducted in triplicate experiments.

## AKRHHGYKRKFH [Peptide P-113, non-specific AMP, portion of human histatin 5]
[1]
  Thickness of the regenerated crystal layer on the enamel surface: 6 μm
[2]; initial vs final concentration with HA particles
  Concentration change (95% CI): 0.29 (−0.01-0.61)
[2]; peptide solution mixed with HA particles (20 mg/tube), overnight 37° C.
  Final concentration (Mean ± SD): 9.86 ± 0.23 nM mL^−1
S. mutans [3]
  MBC, S. mutans: >128 μM mL^−1
S. mutans [4]
  MBC: >128 μM mL^−1
S. mutans [4]; 24 h
  MIC: 32 μM mL^−1
